From US20120010075A1 (priority 2009, published 2012)
Structures can show the parent of a compound that is named as a salt. Where two headings read alike, the source gives them in different places.

Columns and labels:
[1] = tested on: Phytophthora infestans; format: in vivo, Phytophthora infestans on tomato; conditions: applied 24 h before inoculation, assessed 7 days after inoculation
[2] = tested on: Leptosphaeria nodorum (LEPTNO); test: In vitro fungitoxicity of hydrazones with and without copper towards Leptosphaeria nodorum (Example 26); format: cell-based; conditions: 72 h at 25° C.; for inhibition of growth at 0.05 µg/mL: Parastagonospora nodorum, 72 h, read-out: LEPTNO % Inhn. Minus Copper Observed; for inhibition of growth at 0.05 µg/mL / LEPTNO % Inhn. Minus Copper Observed: copper-minus medium
[3] = hydrazone 50 ppm + 50 μM CuCl2.2H2O, tomato
[4] = compound 0.05 μg/mL, copper-plus medium (CuCl2.2H2O)
[5] = hydrazone 50 ppm with 50 μM CuCl2.2H2O, tomato late blight
[6] = test compound Concn. 0.05 μg/mL
[7] = copper-plus medium (CuCl2 10 μM), test compound Concn. 0.05 μg/mL

Row | Structure (SMILES) | melting point [°C] | TLB % Control [1, 3] [%] | inhibition of growth at 0.05 µg/mL ([2]; compound 0.05 μg/mL) [%] | LEPTNO % Inhn. Plus Copper Observed [2, 4] [%] | LEPTNO % Inhn. Minus Copper Observed ([2]; compound 0.05 μg/mL) [%] | TLB % Control [1, 5] [%] | inhibition of growth at 0.05 µg/mL [2, 6] [%] | LEPTNO % Inhn. Plus Copper Observed [2, 7] [%]
1 | C/C(=N\NC(=O)c1ccccc1O)c1cc(C(F)(F)F)ccc1O (as salt: Na) [Example 538] | 277 to 297 |  |  |  |  |  |  | 
2 | O=C(N/N=C/c1cc(Cl)ccc1O)c1cccc([N+](=O)[O-])c1 [Example 10] | 224 to 227 | 96.0 | 6.9 | 97.2 |  |  |  | 
3 | O=C(N/N=C/c1cc(Cl)ccc1O)c1ccc([N+](=O)[O-])cc1 [Example 12] | 259 to 262 | 94.0 | 0.5 | 97.4 |  |  |  | 
4 | C/C(=N\NC(=O)Cc1ccc(F)cc1)c1cc(Cl)cc(Cl)c1O [Example 17] | 209 to 213 | 69.0 | 9.4 | 95.9 |  |  |  | 
5 | Cc1ccc(C)c(C(=O)N/N=C/c2cc(Cl)cc(Cl)c2O)c1 [Example 23] | 169 to 172 | 53.3 |  |  |  |  |  | 
6 | Cc1ccc(C(=O)N/N=C/c2cc(Cl)cc(Cl)c2O)c(C)c1 [Example 27] | 246 to 247 | 43.3 | 16.5 | 97.9 |  |  |  | 
7 | CC/C(=N\NC(=O)c1ccc(C)cc1C)c1ccccc1O [Example 30] | 159 to 160 | 40.7 | 0 | 97.0 |  |  |  | 
8 | Cc1ccc(C(=O)N/N=C(\CCc2ccccc2)c2ccccc2O)c(C)c1 [Example 31] | 143 to 145 | 33.3 | 2.2 | 89.0 |  |  |  | 
9 | Cc1ccc(C(=O)N/N=C/c2cc(Br)cc(Br)c2O)c(C)c1 [Example 32] | 192 to 194 | 74.6 |  | 94.4 | 0.0 |  |  | 
10 | C/C(=N\NC(=O)c1ccc(C)cc1C)c1ccccc1O [Example 33] | 188 to 190 | 50.9 |  | 93.1 | 0.0 |  |  | 
11 | CC/C(=N\NC(=O)c1ccc(C)cc1C)c1ccccc1O [Example 34] | 175 to 176 | 68.4 |  | 97.8 | 0.0 |  |  | 
12 | Cc1ccc(C(=O)N/N=C(\CCc2ccccc2)c2ccccc2O)c(C)c1 [Example 35] | 162 to 166 | 0.0 |  | 96.5 | 3.8 |  |  | 
13 | CC(C)c1ccc(C(=O)N/N=C/c2cc(Cl)cc(Cl)c2O)cc1 [Example 41] | 261 to 263 | 87.0 |  | 97.2 | 0.0 |  |  | 
14 | CC(C)c1ccc(C(=O)N/N=C/c2cc(Cl)cc(Cl)c2O)cc1 [Example 42] | 270 to 272 | 60.0 |  | 93.2 | 9.2 |  |  | 
15 | CC/C(=N\NC(=O)c1cccc(Oc2ccccc2)c1)c1ccccc1O [Example 44] | 148 to 163 | 0.7 | 0.3 | 93.0 |  |  |  | 
16 | O=C(N/N=C(\CCc1ccccc1)c1ccccc1O)c1c(Cl)cccc1Cl [Example 45] | 204 to 208 | 49.0 | 0 | 96.2 |  |  |  | 
17 | O=C(N/N=C/c1cc(Cl)cc(Cl)c1O)c1cccc(Oc2ccccc2)c1 [Example 46] | 170 to 171 | 72.7 | 20.5 | 95.9 |  |  |  | 
18 | C/C(=N\NC(=O)c1cccc(Oc2ccccc2)c1)c1ccccc1O [Example 47] | 178 to 180 | 33.0 | 0 | 97.1 |  |  |  | 
19 | CC/C(=N\NC(=O)c1c(Cl)cccc1Cl)c1ccccc1O [Example 48] | 181 to 184 | 40.0 | 0.3 | 94.6 |  |  |  | 
20 | O=C(N/N=C(\CCc1ccccc1)c1ccccc1O)c1ccccc1Cl [Example 49] | 173 to 177 | 0.7 | 14.6 | 97.1 |  |  |  | 
21 | C/C(=N\NC(=O)c1ccccc1Br)c1cc(Cl)cc(Cl)c1O [Example 57] | 220 to 222 | 89.5 | 0 | 97.3 |  |  |  | 
22 | C/C(=N\NC(=O)c1ccccc1C(F)(F)F)c1ccccc1O [Example 58] | 208 to 210 | 49.0 | 0 | 95.0 |  |  |  | 

Row | Structure (SMILES) | melting point [°C] | TLB % Control [1, 3] [%] | inhibition of growth at 0.05 µg/mL ([2]; compound 0.05 μg/mL) [%] | LEPTNO % Inhn. Plus Copper Observed [2, 4] [%] | LEPTNO % Inhn. Minus Copper Observed ([2]; compound 0.05 μg/mL) [%] | TLB % Control [1, 5] [%] | inhibition of growth at 0.05 µg/mL [2, 6] [%] | LEPTNO % Inhn. Plus Copper Observed [2, 7] [%]
23 | Cc1cccc(C(=O)N/N=C/c2cc(Cl)cc(Cl)c2O)c1O [Example 73] | 202 to 209 | 87.3 | 8.6 | 98.0 |  |  |  | 
24 | O=C(N/N=C/c1cc(Cl)cc(Cl)c1O)c1cc(Cl)cc(Cl)c1 [Example 79] | 248 to 249 | 84.4 | 12.2 | 97.1 |  |  |  | 
25 | O=C(N/N=C/c1cc(Cl)cc(Cl)c1O)c1ccc(C(F)(F)F)cc1 [Example 81] | 238 to 240 | 97.0 | 2.4 | 96.1 |  |  |  | 
26 | CCOc1cccc(C(=O)N/N=C/c2cc(Cl)cc(Cl)c2O)c1 [Example 86] | 207 to 209 | 80.7 | 0.3 | 97.6 |  |  |  | 
27 | O=C(N/N=C/c1cc(Cl)cc(Cl)c1O)c1ccc2ccccc2c1 [Example 92] | 215 to 217 | 71.9 | 1.9 | 98.2 |  |  |  | 
28 | CCOc1ccc(C(=O)N/N=C/c2cc(Cl)cc(Cl)c2O)cc1 [Example 97] | 279 to 281 | 76.3 | 18.2 | 98.3 |  |  |  | 
29 | O=C(N/N=C/c1cc(Cl)cc(Cl)c1O)c1cc(Br)ccc1Cl [Example 98] | 191 to 192 | 79.7 | 16.8 | 98.1 |  |  |  | 
30 | COc1cccc(C(=O)N/N=C/c2cc(Br)ccc2O)c1C [Example 105] | 199 to 201 | 74.6 | 5.8 | 95.2 |  |  |  | 
31 | O=C(N/N=C/c1cc(Cl)cc(Br)c1O)c1ccc(OC(F)(F)F)cc1 [Example 106] | 210 to 220 | 88.7 | 0 | 94.6 |  |  |  | 
32 | Cc1cc(C)cc(C(=O)N/N=C/c2cc(Br)ccc2O)c1 [Example 107] | 191 to 195 | 74.6 | 0 | 97.2 |  |  |  | 
33 | COc1ccc(C(=O)N/N=C(\C)c2ccccc2O)cc1 [Example 214] |  | 60.0 | 7 | 98.0 |  |  |  | 
34 | C/C(=N\NC(=O)c1ccc([N+](=O)[O-])cc1)c1ccccc1O [Example 215] |  | 37.0 | 0.5 | 98.6 |  |  |  | 
35 | C/C(=N\NC(=O)c1ccc(Cl)cc1Cl)c1ccccc1O [Example 216] |  | 57.9 | 6.3 | 98.4 |  |  |  | 
36 | C/C(=N\NC(=O)c1ccc(Cl)cc1)c1cc(Br)ccc1O [Example 293] |  | 19.0 | 7.9 | 95.7 |  |  |  | 
37 | O=C(N/N=C/c1ccc(Cl)cc1O)c1cccc(Cl)c1 [Example 391] |  |  |  |  |  | 92.0 | 6 | 96.9
38 | Cc1ccc(C(=O)N/N=C/c2ccc(Cl)cc2O)c(O)c1 [Example 397] | 283 to 287 |  |  |  |  | 6.7 |  | 
39 | C/C(=N\NC(=O)c1ccc2ccccc2c1O)c1cc(Cl)cc(Cl)c1O [Example 480] |  |  |  |  |  | 4.7 | 9.5 | 95.3
40 | C/C(=N\NC(=O)c1ccccc1)c1cc(Cl)ccc1O [Example 504] |  |  |  |  |  | 94.0 | 1.3 | 97.6
41 | COc1cc(O)c(/C(C)=N/NC(=O)c2ccccc2)c(OC)c1 [Example 526] |  |  |  |  |  | 41.0 | 1.8 | 16.2
42 | C/C(=N\NC(=O)c1ccccc1O)c1cc(C(F)(F)F)ccc1O [Example 538] |  |  |  |  |  | 44.0 | 12.4 | 96.5
43 | CC(C)/C(=N\NC(=O)c1ccccc1)c1cc(Cl)cc(Cl)c1O [Example 588] |  |  |  |  |  | 5.6 | 7.6 | 96.3
